Where no end group is shown, it is not given here.
Tests used:
[1] = molecular target: recombinant wild type TTR and ATTR-D38A seeds (Homo sapiens, UniProt P02766); conditions: 0.5 mg/ml recombinant TTR, 30 ng/μl ATTR-D38A seeds, increasing compound concentrations
Procedure: (§1) Fibril extracts were used to seed the formation of new aggregates from recombinant TTR. In order to further purify the extracts, they were treated with 1% sodium dodecyl sulfate and the soluble fraction was discarded after centrifugation at 13,000 rpm for 5 minutes. This process was repeated two times. The sample was washed with distilled water three times by centrifugation, and then sonicated in cycles of 5 seconds on, 5 seconds off, for a total of 10 minutes, at minimum intensity (18%). The protein content was measured using the Pierce™ BCA Protein Assay Kit (ThermoFisher Scientific). Seeds were added to 0.5 mg/ml recombinant TTR in a final volume of 200 μl of 5 μM thioflavin T, 10 mM Sodium Acetate pH 4.3, 100 mM KCl, and 10 mM EDTA. Unless labeled otherwise, cardiac seeds were analyzed at 30 ng/μl concentration and seeds extracted from adipose tissue were analyzed at 5 ng/μl. Thioflavin fluorescence emission was measured at 482 nm with absorption at 440 nm in a Varioskan Flash (ThermoFisher Scientific) or FLUOstar Omega (BMG LabTech) plate readers. Plates were incubated at 37° C. for 20-72 h as labeled with cycles of 9 min shake (700 rpm double orbital) and 1 min rest throughout the incubation. Measurements were taken with automatic gain if read in Varioskan Flash, or with a manual gain of 1,000 if read in FLUOstar Omega, every 10 min, bottom read. We normalized all our assays by subtracting ThT signal at initial point of incubation. Figures show ThT signal in arbitrary units (a.u.). Fibril formation was confirmed by TEM.
(§2) Amyloid seeding assays were performed as described above. 180 μM peptide was added to 0.5 mg/ml recombinant wild type TTR and 30 ng/μl ATTR-D38A seeds. Amyloid seeding was measured after 24 hour of incubation at 37° C. by ThT fluorescence. Thioflavin T signal obtained in the absence of peptide was considered 100%.

[2] = molecular target: T1, recombinant wild type TTR (Homo sapiens, UniProt P02766); experiment: TTR aggregation assay in the absence of seeds (absorbance at 400 nm); type: biochemical; conditions: 1 mg/ml recombinant wild type TTR, increasing amounts of stabilizer, 4 days
T1 construct: made in house; host or cells: E. coli
Procedure: Next we tested the ability of compounds and mutations that stabilize native, tetrameric TTR to halt amyloid formation induced by disease-related amyloid seeds. […] For these aggregation assays, we incubated 1 mg/ml recombinant wild type TTR with increasing amounts of stabilizers.
TTR aggregation assays are described previously (32). […] Protein aggregation was followed by absorbance at 400 nm, anti-TTR immuno-dot blot of the insoluble fraction, and/or transmission electron microscopy.

[3] = tested on: recombinant wild type TTR and ATTR-D38A seeds; conditions: 180 μM peptide, 0.5 mg/ml recombinant wild type TTR, 30 ng/μl ATTR-D38A seeds, 37° C.; N-methylated peptide as noted in the cell
Procedure: as §1, §2

| fibril formation with ATTR-D38A ex-vivo seeds in presence of stabilizer [1] | Compound | TTR aggregation in the absence of seeds [2] | B. ThT signal (20h, no inhibitor was normalized to 100%, SD = 11.42) [3] |
| --- | --- | --- | --- |
| did not reduce or delay fibril formation | O=C(O)c1ccc2nc(-c3cc(Cl)cc(Cl)c3)oc2c1 [tafamidis] | considerably diminished in a dose-dependent manner | – |
| – | RRRRPYSYSTTAVVTN (not fully specified (residue 12)) [TabH1] | – | 32.48 ± 2.39 (N-me-E11) % |
| did not reduce or delay fibril formation | O=C(O)c1cc(-c2ccc(F)cc2F)ccc1O [diflunisal] | considerably diminished in a dose-dependent manner | – |
| – | RRRRPFHEHAEVVFTA [TabF1] | – | 60.45 ± 3.90 (N-me-A12) % |

— patent publication US11028128B2, “Inhibition of the aggregation of transthyretin by specific binding of peptides to aggregation-driving segments” (THE REGENTS OF THE UNIVERSITY OF CALIFORNIA, priority 2016, dated 2021)
